Measurements reported in publication PMC5218480 (PLoS ONE, 2017).

Test system: MV-4-11 cells
Assay: Gene expression microarray analysis (Affymetrix PrimeView) and GSEA
Type: cell-based, human
Design: RFU PODN (11730768_x_at) / Fold change /veh PODN (11730768_x_at) / RFU LINC00158 (11744669_a_at) / Fold change /veh LINC00158 (11744669_a_at) / RFU DUSP10 (11751237_a_at) / Fold change /veh DUSP10 (11751237_a_at) / RFU ID3 (11757404_x_at) / Fold change /veh ID3 (11757404_x_at) / RFU PLEKHG5 (11737974_s_at) / Fold change /veh PLEKHG5 (11737974_s_at) / RFU LRRC4B (11730491_at) / Fold change /veh LRRC4B (11730491_at) / RFU GIMAP4 (11747438_a_at) / Fold change /veh GIMAP4 (11747438_a_at) / RFU KRT8 (11758183_x_at) / Fold change /veh KRT8 (11758183_x_at) / RFU CNN1 (11734310_a_at) / Fold change /veh CNN1 (11734310_a_at) / RFU VPS37D (11726825_at) / Fold change /veh VPS37D (11726825_at) / RFU C10orf10 (11716522_x_at) / Fold change /veh C10orf10 (11716522_x_at) / RFU KIR2DL2 /// KIR2DL4 /// KIR2DL5A /// KIR2DL5B /// KIR2DS1 /// KIR2DS2 /// KIR2DS3 /// KIR2DS4 /// KIR3DL3 /// KIR3DL3 /// KIR3DS1 (11738374_at) / Fold change /veh KIR2DL2 /// KIR2DL4 /// KIR2DL5A /// KIR2DL5B /// KIR2DS1 /// KIR2DS2 /// KIR2DS3 /// KIR2DS4 /// KIR3DL3 /// KIR3DL3 /// KIR3DS1 (11738374_at) / RFU C1QL1 (11718748_at) / Fold change /veh C1QL1 (11718748_at) / RFU TMPRSS4 (11747572_a_at) / Fold change /veh TMPRSS4 (11747572_a_at) / RFU HAMP (11756126_x_at) / Fold change /veh HAMP (11756126_x_at) / RFU RNFT2 (11725882_a_at) / Fold change /veh RNFT2 (11725882_a_at) / RFU NR4A2 (11747474_a_at) / Fold change /veh NR4A2 (11747474_a_at) / RFU ABCC12 (11746883_a_at) / Fold change /veh ABCC12 (11746883_a_at) / RFU TMEM136 (11760407_x_at) / Fold change /veh TMEM136 (11760407_x_at) / RFU CLDN22 /// WWC2 (11732394_at) / Fold change /veh CLDN22 /// WWC2 (11732394_at) / RFU HLA-DPB1 (11760878_x_at) / Fold change /veh HLA-DPB1 (11760878_x_at) / RFU SPINT1 (11716480_a_at) / Fold change /veh SPINT1 (11716480_a_at) / RFU GAP43 (11754022_s_at) / Fold change /veh GAP43 (11754022_s_at) / RFU A4GNT (11735810_at) / Fold change /veh A4GNT (11735810_at) / RFU PRB3 (11715151_x_at) / Fold change /veh PRB3 (11715151_x_at) / RFU TUBB4B (11761932_at) / Fold change /veh TUBB4B (11761932_at) / RFU CAPN14 (11732068_a_at) / Fold change /veh CAPN14 (11732068_a_at) / RFU TMCC2 (11721928_a_at) / Fold change /veh TMCC2 (11721928_a_at) / RFU IRGQ (11745062_a_at) / Fold change /veh IRGQ (11745062_a_at) / RFU FAM174B (11720279_a_at) / Fold change /veh FAM174B (11720279_a_at) / RFU TMPRSS4 (11748680_a_at) / Fold change /veh TMPRSS4 (11748680_a_at) / RFU FAM212B (11763350_a_at) / Fold change /veh FAM212B (11763350_a_at) / RFU PLEKHG5 (11743358_a_at) / Fold change /veh PLEKHG5 (11743358_a_at) / RFU ZSCAN30 (11745921_a_at) / Fold change /veh ZSCAN30 (11745921_a_at) / RFU CMKLR1 (11741424_a_at) / Fold change /veh CMKLR1 (11741424_a_at) / RFU LOC101060620 /// MAPK8IP1 (11723275_at) / Fold change /veh LOC101060620 /// MAPK8IP1 (11723275_at) / RFU SPTSSB (11747773_x_at) / Fold change /veh SPTSSB (11747773_x_at) / RFU PRSS12 (11739890_at) / Fold change /veh PRSS12 (11739890_at) / RFU BIN1 (11741810_x_at) / Fold change /veh BIN1 (11741810_x_at) / RFU WNT11 (11732464_a_at) / Fold change /veh WNT11 (11732464_a_at) / RFU C10orf10 (11716521_a_at) / Fold change /veh C10orf10 (11716521_a_at) / RFU C5orf56 (11738089_at) / Fold change /veh C5orf56 (11738089_at) / RFU CYB561 (11721691_x_at) / Fold change /veh CYB561 (11721691_x_at) / RFU ANKRD19P (11752326_a_at) / Fold change /veh ANKRD19P (11752326_a_at) / RFU OR2T12 /// OR2T33 /// OR2T8 (11738714_s_at) / Fold change /veh OR2T12 /// OR2T33 /// OR2T8 (11738714_s_at) / RFU VCAN (11748164_a_at) / Fold change /veh VCAN (11748164_a_at) / RFU JSRP1 (11732532_at) / Fold change /veh JSRP1 (11732532_at) / RFU KRTAP10-11 (11738290_x_at) / Fold change /veh KRTAP10-11 (11738290_x_at) / RFU MYO3A (11730013_a_at) / Fold change /veh MYO3A (11730013_a_at) / RFU EBF3 (11725865_a_at) / Fold change /veh EBF3 (11725865_a_at) / RFU CAMK2N1 (11719241_x_at) / Fold change /veh CAMK2N1 (11719241_x_at) / RFU C5orf56 (11738088_a_at) / Fold change /veh C5orf56 (11738088_a_at) / RFU OLFML3 (11715873_a_at) / Fold change /veh OLFML3 (11715873_a_at) / RFU LOC100653217 /// NTM (11731650_a_at) / Fold change /veh LOC100653217 /// NTM (11731650_a_at) / RFU MAPK11 (11762145_a_at) / Fold change /veh MAPK11 (11762145_a_at) / RFU FIZ1 (11724087_x_at) / Fold change /veh FIZ1 (11724087_x_at) / RFU OASL (11726364_x_at) / Fold change /veh OASL (11726364_x_at) / RFU SOX15 (11748057_x_at) / Fold change /veh SOX15 (11748057_x_at) / RFU CD79A (11719716_a_at) / Fold change /veh CD79A (11719716_a_at) / RFU HIST1H1D (11736915_at) / Fold change /veh HIST1H1D (11736915_at) / RFU CASKIN2 (11723855_a_at) / Fold change /veh CASKIN2 (11723855_a_at) / RFU LOC730098 (11760151_x_at) / Fold change /veh LOC730098 (11760151_x_at) / RFU OR4N2 (11742367_at) / Fold change /veh OR4N2 (11742367_at) / RFU PRRT2 (11749266_a_at) / Fold change /veh PRRT2 (11749266_a_at) / RFU SNX32 (11753110_a_at) / Fold change /veh SNX32 (11753110_a_at) / RFU CDHR5 (11726645_a_at) / Fold change /veh CDHR5 (11726645_a_at) / RFU RCAN1 (11760418_a_at) / Fold change /veh RCAN1 (11760418_a_at) / RFU FAM167A (11723789_a_at) / Fold change /veh FAM167A (11723789_a_at) / RFU FAM26E (11764081_at) / Fold change /veh FAM26E (11764081_at) / RFU ISYNA1 (11749810_s_at) / Fold change /veh ISYNA1 (11749810_s_at) / RFU ACY1 (11761880_at) / Fold change /veh ACY1 (11761880_at) / RFU 11764098_at / Fold change /veh 11764098_at / RFU SAMD14 (11745864_x_at) / Fold change /veh SAMD14 (11745864_x_at) / RFU NPB (11741838_a_at) / Fold change /veh NPB (11741838_a_at) / RFU TMPRSS6 (11731388_a_at) / Fold change /veh TMPRSS6 (11731388_a_at) / RFU KRTAP10-2 (11738614_at) / Fold change /veh KRTAP10-2 (11738614_at) / RFU ARHGAP8 /// PRR5-ARHGAP8 (11727945_x_at) / Fold change /veh ARHGAP8 /// PRR5-ARHGAP8 (11727945_x_at) / RFU KRTAP5-7 /// NADSYN1 (11734609_at) / Fold change /veh KRTAP5-7 /// NADSYN1 (11734609_at) / RFU RASL12 (11751679_a_at) / Fold change /veh RASL12 (11751679_a_at) / RFU CDKN2B (11736163_a_at) / Fold change /veh CDKN2B (11736163_a_at) / RFU PRF1 (11729649_at) / Fold change /veh PRF1 (11729649_at) / RFU, ZNF638 /// ZNF638-IT1 / Fold change vs veh, ZNF638 /// ZNF638-IT1 / RFU, PANK3 / Fold change vs veh, PANK3 / RFU, SH3YL1 / Fold change vs veh, SH3YL1 / RFU, ZEB2 / Fold change vs veh, ZEB2 / RFU, NRIP1 / Fold change vs veh, NRIP1 / RFU, PTTG1IP / Fold change vs veh, PTTG1IP / RFU, CAPN2 / Fold change vs veh, CAPN2 / RFU, MED14 / Fold change vs veh, MED14 / RFU, SNORA58 / Fold change vs veh, SNORA58 / RFU, C1orf63 / Fold change vs veh, C1orf63 / RFU, LRRFIP1 / Fold change vs veh, LRRFIP1 / RFU, NDUFAF7 / Fold change vs veh, NDUFAF7 / RFU, SLC12A2 / Fold change vs veh, SLC12A2 / RFU, IBTK / Fold change vs veh, IBTK / RFU, ESF1 / Fold change vs veh, ESF1 / Fold change vs veh, TMEM50B / RFU, TAOK1 / Fold change vs veh, TAOK1 / RFU, ACBD3 / Fold change vs veh, ACBD3 / RFU, TMA16 / Fold change vs veh, TMA16 / RFU, RWDD3 / Fold change vs veh, RWDD3 / RFU, BCAT1 / Fold change vs veh, BCAT1 / RFU, EDEM3 / Fold change vs veh, EDEM3 / RFU, TMEM33 / Fold change vs veh, TMEM33 / RFU, WDR75 / Fold change vs veh, WDR75 / RFU, AHCTF1 / Fold change vs veh, AHCTF1 / RFU, TFRC / Fold change vs veh, TFRC / RFU, ZDHHC17 / Fold change vs veh, ZDHHC17 / RFU, NOM1 / Fold change vs veh, NOM1 / RFU, ARL8B / Fold change vs veh, ARL8B / RFU, ZBTB11 / Fold change vs veh, ZBTB11 / RFU, TAMM41 / Fold change vs veh, TAMM41 / RFU, KIAA1704 /// LOC100996395 / Fold change vs veh, KIAA1704 /// LOC100996395 / RFU, ING1 / Fold change vs veh, ING1 / RFU, TRMT61B / Fold change vs veh, TRMT61B / RFU, FUBP3 / Fold change vs veh, FUBP3 / RFU, TP53 / Fold change vs veh, TP53 / RFU, TNKS2 / Fold change vs veh, TNKS2 / RFU, ZFP14 / Fold change vs veh, ZFP14 / RFU, ACTR2 / Fold change vs veh, ACTR2 / RFU, PPP3R1 / Fold change vs veh, PPP3R1 / RFU, PIK3R1 / Fold change vs veh, PIK3R1 / RFU, HNRNPA1 / Fold change vs veh, HNRNPA1 / RFU, RNF170 / Fold change vs veh, RNF170 / RFU, ZNF28 / Fold change vs veh, ZNF28 / RFU, RNGTT / Fold change vs veh, RNGTT / RFU, OGT / Fold change vs veh, OGT / RFU, BRD1 / Fold change vs veh, BRD1 / RFU, MARS / Fold change vs veh, MARS / RFU, ZNF655 / Fold change vs veh, ZNF655 / RFU, FAHD1 / Fold change vs veh, FAHD1 / RFU, BDP1 / Fold change vs veh, BDP1 / RFU, LRRCC1 / Fold change vs veh, LRRCC1 / RFU, ARID1A / Fold change vs veh, ARID1A / RFU, ZNF146 / Fold change vs veh, ZNF146 / RFU, ZNF330 / Fold change vs veh, ZNF330 / RFU, GPN3 / Fold change vs veh, GPN3 / RFU, C9orf123 / Fold change vs veh, C9orf123 / RFU, N4BP2L2 / Fold change vs veh, N4BP2L2 / RFU, ARFIP1 / Fold change vs veh, ARFIP1 / RFU, FAM179B / Fold change vs veh, FAM179B / RFU, BCL10 / Fold change vs veh, BCL10 / RFU, UHRF1BP1L / Fold change vs veh, UHRF1BP1L / RFU, BET1 / Fold change vs veh, BET1 / RFU, CNOT2 / Fold change vs veh, CNOT2 / RFU, ZNF268 / Fold change vs veh, ZNF268 / Fold change vs veh, ZNF507 / RFU, DGCR2 / Fold change vs veh, DGCR2 / RFU, WDSUB1 / Fold change vs veh, WDSUB1 / Fold change vs veh, HSP90B1 /// MIR3652 / RFU, ADSS / Fold change vs veh, ADSS / RFU, GK / Fold change vs veh, GK / RFU, ZNF148 / Fold change vs veh, ZNF148 / RFU, TAF9 / Fold change vs veh, TAF9 / RFU, SLC1A5 / Fold change vs veh, SLC1A5 / RFU, SLMO2 / Fold change vs veh, SLMO2 / RFU, ABCC4 / Fold change vs veh, ABCC4 / RFU, LOC101060439 /// RAP1B / Fold change vs veh, LOC101060439 /// RAP1B / RFU, RFX7 / Fold change vs veh, RFX7 / RFU, GTPBP10 / Fold change vs veh, GTPBP10 / RFU, CNEP1R1 / Fold change vs veh, CNEP1R1 / RFU, BIVM-ERCC5 /// ERCC5 / Fold change vs veh, BIVM-ERCC5 /// ERCC5 / RFU, ILF3 / Fold change vs veh, ILF3 / RFU 11762660_at / Fold change /veh 11762660_at / RFU VCAN (11757783_s_at) / Fold change /veh VCAN (11757783_s_at) / RFU DDX43 (11728927_at) / Fold change /veh DDX43 (11728927_at) / RFU KRT8 (11758188_x_at) / Fold change /veh KRT8 (11758188_x_at) / RFU NKD1 (11759106_at) / Fold change /veh NKD1 (11759106_at) / RFU SRD5A1 (11742802_a_at) / Fold change /veh SRD5A1 (11742802_a_at) / RFU TPSAB1 /// TPSB2 (11721975_s_at) / Fold change /veh TPSAB1 /// TPSB2 (11721975_s_at) / RFU GSTM3 (11746129_a_at) / Fold change /veh GSTM3 (11746129_a_at) / RFU IL23R (11737362_x_at) / Fold change /veh IL23R (11737362_x_at) / RFU TMEM51 (11727254_a_at) / Fold change /veh TMEM51 (11727254_a_at) / RFU PIWIL2 (11732686_x_at) / Fold change /veh PIWIL2 (11732686_x_at) / RFU ORM1 (11744905_x_at) / Fold change /veh ORM1 (11744905_x_at) / RFU CCDC152 (11743942_at) / Fold change /veh CCDC152 (11743942_at) / RFU ECM1 (11717891_a_at) / Fold change /veh ECM1 (11717891_a_at) / RFU IL23R (11748794_a_at) / Fold change /veh IL23R (11748794_a_at) / RFU TNFAIP8L3 (11732012_x_at) / Fold change /veh TNFAIP8L3 (11732012_x_at) / RFU MBOAT4 (11741988_at) / Fold change /veh MBOAT4 (11741988_at) / RFU 11764193_at / Fold change /veh 11764193_at / RFU TMEM53 (11763286_at) / Fold change /veh TMEM53 (11763286_at) / RFU MAGEB2 (11727129_at) / Fold change /veh MAGEB2 (11727129_at) / RFU TMEM200A (11744735_a_at) / Fold change /veh TMEM200A (11744735_a_at) / RFU CCDC152 (11751479_a_at) / Fold change /veh CCDC152 (11751479_a_at) / RFU FAM211A (11726209_a_at) / Fold change /veh FAM211A (11726209_a_at) / RFU RGS16 (11746705_a_at) / Fold change /veh RGS16 (11746705_a_at) / RFU VCAN (11755009_s_at) / Fold change /veh VCAN (11755009_s_at) / RFU RHOB (11743442_s_at) / Fold change /veh RHOB (11743442_s_at) / RFU RGS16 (11720943_a_at) / Fold change /veh RGS16 (11720943_a_at) / RFU RGS16 (11720944_at) / Fold change /veh RGS16 (11720944_at) / RFU, VPS4B / Fold change vs veh, VPS4B / RFU, CREB1 / Fold change vs veh, CREB1 / RFU, DNAJC13 / Fold change vs veh, DNAJC13 / RFU, GNAQ / Fold change vs veh, GNAQ / RFU, CDK5R1 / Fold change vs veh, CDK5R1 / RFU, ZRANB3 / Fold change vs veh, ZRANB3 / RFU, CUL4A / Fold change vs veh, CUL4A / RFU, CCNY / Fold change vs veh, CCNY / RFU, UFL1 / Fold change vs veh, UFL1 / RFU, COG3 / Fold change vs veh, COG3 / RFU, DIAPH2 / Fold change vs veh, DIAPH2 / RFU, SKA2 / Fold change vs veh, SKA2 / RFU, AFF3 / Fold change vs veh, AFF3 / RFU, LMF1 / Fold change vs veh, LMF1 / RFU, IPO11 / Fold change vs veh, IPO11 / RFU, DFFB / Fold change vs veh, DFFB / RFU, FOXP1 / Fold change vs veh, FOXP1 / RFU, CARD8 / Fold change vs veh, CARD8 / RFU, STRN3 / Fold change vs veh, STRN3 / RFU, ADK / Fold change vs veh, ADK / RFU, RASSF2 / Fold change vs veh, RASSF2 / RFU, WIPF1 / Fold change vs veh, WIPF1 / RFU, LARP1B / Fold change vs veh, LARP1B / RFU, RASA1 / Fold change vs veh, RASA1 / RFU, RB1 / Fold change vs veh, RB1 / RFU, PPFIA1 / Fold change vs veh, PPFIA1 / RFU, MAT2A / Fold change vs veh, MAT2A / RFU, CCT5 / Fold change vs veh, CCT5 / RFU, WDR92 / Fold change vs veh, WDR92 / RFU, CUX1 / Fold change vs veh, CUX1 / RFU, TTC7A / Fold change vs veh, TTC7A / RFU, TMEM135 / Fold change vs veh, TMEM135 / RFU, DEPTOR / Fold change vs veh, DEPTOR / RFU, CPM / Fold change vs veh, CPM / RFU, DNAJB6 / Fold change vs veh, DNAJB6 / RFU, CACNA2D3 / Fold change vs veh, CACNA2D3 / RFU, DTX4 / Fold change vs veh, DTX4 / RFU, TFCP2 / Fold change vs veh, TFCP2 / RFU, GMCL1 /// GMCL1P1 / Fold change vs veh, GMCL1 /// GMCL1P1 / RFU, AEBP2 / Fold change vs veh, AEBP2 / RFU, SNHG1 /// SNORD22 /// SNORD25 /// SNORD26 /// SNORD27 /// SNORD28 /// SNORD29 /// SNORD31 / Fold change vs veh, SNHG1 /// SNORD22 /// SNORD25 /// SNORD26 /// SNORD27 /// SNORD28 /// SNORD29 /// SNORD31 / Fold change (Aza/veh), C12orf56 (ProbeSet 11735607_a_at) / Fold change (ACY-1035/veh), C12orf56 (ProbeSet 11735607_a_at) / Fold change (Aza/veh), FGFR1OP (ProbeSet 11751329_s_at) / Fold change (ACY-1035/veh), FGFR1OP (ProbeSet 11751329_s_at) / Fold change (Aza/veh), VPS36 (ProbeSet 11739960_a_at) / Fold change (ACY-1035/veh), VPS36 (ProbeSet 11739960_a_at) / RFU SYPL1 (11715823_x_at) / Fold change /veh SYPL1 (11715823_x_at) / RFU IGFBP7 (11715501_s_at) / Fold change /veh IGFBP7 (11715501_s_at) / RFU REEP3 (11722064_at) / Fold change /veh REEP3 (11722064_at) / RFU IGLL1 (11728026_x_at) / Fold change /veh IGLL1 (11728026_x_at): dose or concentration left out as unconfirmed
Settings: ProbeSet 11723944_a_at; LIST B

In the case of `Nc1ccc(-c2cccs2)cc1NC(=O)c1ccc2c(c1)cc(C1CC1)n2CCN1CCOCC1` [ACY-1035], the “RFU, PTTG1IP” value is reported as 718.82 RFU.
